Experimental data: patent publication US6046228A, “Anti-viral pharmaceutical compositions containing saturated 1,2-dithiaheterocyclic compounds and uses thereof” (priority 1999, dated 2000)
Where “and” joins values, the source holds several entries; their conditions need not be identical. Identical values can stand only once. Like-named read-outs stand apart in the source and are kept apart here.

What was measured:
CEM-SS cells = assay: XTT assay, cytotoxicity (IC50), CEM-SS cells; type: cell-based
Procedure: (§1) Initial anti-HIV screening was performed with CEM-SS cells and HIV-1RFusing the XTT cytoprotection assay as previously described (Weislow et al., J. National Cancer Inst. 81: 577-586, (1989)). HIV-1 isolates included common laboratory stains (RF, IIIB and MN), as well as a panel of HIV-1 clinical isolates (Cushman et al., J. Med. Chem. 37: 3040-3050, (1994)). The pyridone-resistant HIV-1A17 isolate (Nunberg et al., J. Virol., 65: 4887-4892 (1991)) was obtained from Emilio Emini at Merck Sharpe and Dohme Laboratories. Phytohemagglutinin-stimulated human peripheral blood lymphocytes (PBLs) and fresh monocyte-macrophage (Mono/MF) cultures were prepared and utilized in antiviral assays as previously described (Rice et al., Proc. Nat'l. Academy Science, USA 90: 9721-9724, (1993)); (Cushman et al., J. Med. Chem. 37: 3040-3050, (1994)). EC50 values for these cultures indicate the drug concentration that provided a 50% reduction in viral p24 production. […] The compounds can be synthesized according to the teachings of Singh et al., Sulfur Letters 8: 107-114, (1988). […] MT-2, MT-4, U1, HeLa-CD4-LTR-β-gal and 174xCEM cells were obtained from the AIDS Research and Reference Program (National Institute of Allergy and Infectious Disease, National Institutes of Health, Bethesda, Md. USA), as were the HIV-2MS and the AZT-resistant HIV-1G910-6 isolates.
(§2) Racemate and enantiomers of the cis-1,1-dioxo[1,2]dithiane-4,5-diol were synthesized and evaluated for antiviral activity in the XTT assay as described hereinabove.

HIV-1 p7NC protein = biological target: T1, HIV-1 p7NC protein (Human immunodeficiency virus type 1 group M subtype B, UniProt P04591); assay: Trp37 zinc finger fluorescence assay (zinc ejection from p7NC); type: biochemical; details: for p7NC Trp37 Assay (RFU): 25 μM compound
T1 construct: recombinant HIV-1 p7NC protein
Procedure: Fluorescence measurements of the Trp^37 residue in the C-terminal zinc finger of the recombinant HIV-1 p7NC protein were performed as previously described (Rice et al., Science 270:1194, 1995). The p7NC protein was prepared at 20 μg/ml in 10 mM sodium phosphate buffer (pH 7.0), treated with 25 μM of each compound, then after indicated time intervals the samples were diluted 1/10 in 10 mM sodium phosphate buffer (pH 7.0) and the fluorescence intensity measured. The excitation and emission wavelengths utilized with the Shimadzu RF5000 spectrofluorimeter were 280 nm and 351 nm, respectively. In an alternate assay, the zinc-selective fluorescent probe N-(6-methoxy-8quinolyl-)-p-toluenesulfonamide (TSQ, Molecular Probes, Eugene, Oreg.) originally described by Fredrickson (J. Neurosci. Meth. 20:91, 1987) was utilized to measure zinc released from the p7NC protein in vitro. Briefly, 2 μM recombinant HIV-1 p7NC protein in 10 mM sodium phosphate buffer, pH 7.0, 10% glycerol was treated with 10 μM 624151 ([…] total volume in 96-well plates), and the time-dependent increase in fluorescence was measured on a Labsystems Fluoroskan II (360 nm excitation filter and 460 nm emission filter) over a period of 2 hours. Induction of alterations of p7NC proteins within intact virions involved treatment of HIV-1MN for 1 hour at 37° C. with 25 μM test compound. Samples were centrifuged 1 hour at 4° C. under 18,000×g to pellet the virus from the drug. Virus pellets were resolved by non-reducing SDS-PAGE and analyzed by immunoblot using monospecific rabbit antisera to the purified p7NC protein.
^b The percent decrease in RFU was calculated based on measurement of
the initial fluorescence of the p7NC protein before and 10 minutes after
treatment with the 25 μM of compound at ambient temperature.
The ability of 624151 to chemically interact with the zinc fingers of the HIV-1 p7NC protein was initially determined by a fluorescence assay (Rice et al., Science 270:1194-1197, (1995)) that measures a loss in intrinsic fluorescence of the tryptophan (Trp^37) residue in the second finger of the protein that occurs upon loss of zinc from the finger (Summers et al., Protein Sci. 1:563, 1992). […] As the 624151 modifies the zinc finger thiolates and the zinc is ejected over time, the metal is bound by the TSQ fluorochrome (FIG. 1(B)).
Sodium Phosphate buffer, pH 7.0 in 1 ml was treated with 25 μM of
compound. At indicated times, the mixture was diluted 1/10 and the
relative fluorescence units (RFU) measured in a Shimadzu RF5000
spectrofluorimeter with […] and Em = 351 mn. Following
loss of zinc from the Cterminal zinc finger, the Trp37 residue folds away
from the # aqueous environment and experiences a loss of fluorescence.

HIV-1 integrase = biological target: T2, HIV-1 integrase (Human immunodeficiency virus type 1 group M subtype B, UniProt P04585); assay: HIV-1 integrase activity; type: biochemical; details: Table 6
T2 construct: the purified HIV-1 protease and integrase enzymes

HIV-1RF [1] = assay: XTT cytoprotection (cytopathicity) anti-HIV assay, CEM-SS cells; type: cell-based
Procedure: as §1, §2

[2] = system: attachment of HIV-1 to fresh human PBLs; assay: virus attachment assay, HIV-1RF to PBLs (p24-based); type: cell-based; details: control; 30 min
Procedure: Binding of HIV-1RF to PBLs was measured by a p24-based assay (Rice, et al., Proc. Nat'l. Academy of Science USA 90: 9721-9724, (1993)). Briefly, 5×10^5 PBLs were incubated with a concentrated stock of virus for 30 min. at 37° C. in the absence or presence of various concentrations of 624151, the unbound virus was washed away, and the cell-associated virus was solubilized in 1% Triton X-100, 1% BSA and analyzed by the p24 antigen capture assay as previously described. The binding of gp120to CD4 was analyzed using an antigen capture ELISA. All steps of the assay were carried out according to the manufacturer's protocols.
^.dagger. Attachment of HIV1 to fresh human PBLs, binding of gp120 to […]

HIV-1 p66-p51 RT = biological target: T3, HIV-1 p66-p51 RT (Human immunodeficiency virus type 1 group M subtype B, UniProt P04585); assay: reverse transcriptase activity assay; type: biochemical; details: nonphosphorylated control, in words
T3 construct: the purified HIV-1 p66-p51 RT enzyme
Procedure: The effects of 624151 on the in vitro activity of purified RT was determined by measurement of incorporation of [^3 H]TTP onto the poly(rA):oligo(dT)(rAdT) or poly(rC):oligo(dG)(rCdG) homopolymer template/primer systems. Samples (5 μL) were blotted onto DE81 paper, washed with 5% dibasic sodium phosphate as previously described (Buckheit et al., Antiviral Res. 21:247, (1993)), and then quantitated on a Packard Matrix 9600 dual beam counter. 3'-Azido-3'-deoxythymidine-5 '-triphosphateand UC38 (NSC 629243) served as positive controls for inhibition of RT. HIV-1 protease activity was quantitated by a reversed phase HPLC assay utilizing the […]Amide substrate (Multiple Peptide Systems, San Diego, Calif.) as previously described in Rice et al. (Proc. Nat'l. Academy of Science USA 9: 9721-9724, (1993)).

HIV-1RF [3] = assay: effect of increasing multiplicity of infection, CEM-SS cells; type: cell-based; details: for EC50: Human immunodeficiency virus 1, CEM-SS
Procedure: Initial anti-HIV screening was performed with CEM-SS cells and HIV-1RFusing the XTT cytoprotection assay as previously described (Weislow et al., J. National Cancer Inst. 81: 577-586, (1989)). HIV-1 isolates included common laboratory stains (RF, IIIB and MN), as well as a panel of HIV-1 clinical isolates (Cushman et al., J. Med. Chem. 37: 3040-3050, (1994)). The pyridone-resistant HIV-1A17 isolate (Nunberg et al., J. Virol., 65: 4887-4892 (1991)) was obtained from Emilio Emini at Merck Sharpe and Dohme Laboratories. Phytohemagglutinin-stimulated human peripheral blood lymphocytes (PBLs) and fresh monocyte-macrophage (Mono/MF) cultures were prepared and utilized in antiviral assays as previously described (Rice et al., Proc. Nat'l. Academy Science, USA 90: 9721-9724, (1993)); (Cushman et al., J. Med. Chem. 37: 3040-3050, (1994)). EC50 values for these cultures indicate the drug concentration that provided a 50% reduction in viral p24 production. […] The compounds can be synthesized according to the teachings of Singh et al., Sulfur Letters 8: 107-114, (1988). The 4,5-cis-dihydroxy(1,1-dioxy-1,2,-dithiohexane) compound (NSC 624151) has been abbreviated as 624151 for convenience. MT-2, MT-4, U1, HeLa-CD4-LTR-β-gal and 174xCEM cells were obtained from the AIDS Research and Reference Program (National Institute of Allergy and Infectious Disease, National Institutes of Health, Bethesda, Md. USA), as were the HIV-2MS and the AZT-resistant HIV-1G910-6 isolates.

[4] = Homo sapiens, CEM-SS, Table 5, cytotoxicity, read-out: IC50 Mean
[5] = Human immunodeficiency virus 1, CEM-SS, Table 5, read-out: EC50 Mean

O=S1(=O)C[C@H](O)[C@H](O)CS1 (single isomer, unassigned) [NSC 693194, (+)-cis-4,5-Dihydroxy-1,2-dithiane 1,1-dioxide]
IC50 (CEM-SS cells; Homo sapiens, CEM-SS, Table 5, cytotoxicity, read-out: IC50 Duplicates): 134 µM
IC50 (CEM-SS cells; [4]): 134 µM
IC50 (CEM-SS cells; Homo sapiens, CEM-SS, cytotoxicity, CEM-SS cells, read-out: XTT Assay IC50): 134 µM
IC50 (CEM-SS cells; Table 5, cytotoxicity, listed as 693194, read-out: IC50 Duplicates): 133 µM
p7NC Trp37 Assay (RFU) (HIV-1 p7NC protein; 0 min, listed as 693194): 280 RFU
p7NC Trp37 Assay (RFU) (HIV-1 p7NC protein; 3 min, listed as 693194): 146 RFU
p7NC Trp37 Assay (RFU) (HIV-1 p7NC protein; 10 min, listed as 693194): 75 RFU
p7NC Trp37 Assay (RFU) (HIV-1 p7NC protein; 30 min, listed as 693194): 41 RFU
inhibition of HIV-1 integrase (HIV-1 integrase): NI100
EC50 (HIV-1RF [1]; Human immunodeficiency virus 1, CEM-SS, CEM-SS cells, HIV-1RF, read-out: XTT Assay EC50): 16 µM
EC50 (HIV-1RF [1]; [5]): 16.2 µM
EC50 (HIV-1RF [1]; Table 5, listed as 693194, read-out: EC50 Duplicates): 18.6 µM and 13.7 µM

O=S1(=O)C[C@H](O)[C@H](O)CS1 (single isomer, unassigned) [NSC 693195, (-)-cis-4,5-Dihydroxy-1,2-dithiane 1,1-dioxide]
IC50 (CEM-SS cells; Table 5, cytotoxicity, listed as 693195, read-out: IC50 Duplicates): 129 µM and 135 µM
IC50 (CEM-SS cells; Table 5, cytotoxicity, listed as 693195, read-out: IC50 Mean): 132 µM
IC50 (CEM-SS cells; cytotoxicity, CEM-SS cells, read-out: XTT Assay IC50): 132 µM
p7NC Trp37 Assay (RFU) (HIV-1 p7NC protein; 0 min, listed as 693195): 279 RFU
p7NC Trp37 Assay (RFU) (HIV-1 p7NC protein; 3 min, listed as 693195): 117 RFU
p7NC Trp37 Assay (RFU) (HIV-1 p7NC protein; 10 min, listed as 693195): 69 RFU
p7NC Trp37 Assay (RFU) (HIV-1 p7NC protein; 30 min, listed as 693195): 45 RFU
inhibition of HIV-1 integrase (HIV-1 integrase): NI100
EC50 (HIV-1RF [1]; CEM-SS cells, HIV-1RF, read-out: XTT Assay EC50): 8.8 µM
EC50 (HIV-1RF [1]; Table 5, listed as 693195, read-out: EC50 Duplicates): 9.04 µM and 8.64 µM
EC50 (HIV-1RF [1]; Table 5, listed as 693195, read-out: EC50 Mean): 8.8 µM
EC50 relative to enantiomer or racemate (HIV-1RF [1]; in words): about half that of the (+) enantiomer

dextran sulfate [reference compound]
IC50 Duplicates (CEM-SS cells; Table 5, cytotoxicity): > 95 µg/mL
IC50 Mean (CEM-SS cells; Table 5, cytotoxicity): > 95 µg/mL
virion binding ID50 [2]: 1.8 µg/mL
EC50 Mean (HIV-1RF [1]; Table 5): 0.76 µg/mL

Cc1cn([C@H]2C[C@H](N=[N+]=[N-])[C@@H](CO)O2)c(=O)[nH]c1=O [AZT, 3'-azido-3'-deoxythymidine]
IC50 (CEM-SS cells; [4]): > 1 µM
loss of Trp37 fluorescence of p7NC (HIV-1 p7NC protein; FIG. 1(A), 25 μM, in words): not by AZT control
inhibition of RT activity (HIV-1 p66-p51 RT): not inhibitory
EC50 (HIV-1RF [3]; MOI 0.01): 0.019 µM
EC50 (HIV-1RF [3]; MOI 0.02): 0.024 µM
EC50 (HIV-1RF [3]; MOI 0.04): 1.57 µM
EC50 (HIV-1RF [3]; MOI 0.08): > 10 µM
EC50 (HIV-1RF [3]; MOI 0.16): > 10 µM
EC50 (HIV-1RF [3]; MOI 0.32): > 10 µM
EC50 (HIV-1RF [3]; lowest MOI): 0.0189 µM
effect of increasing the MOI on activity (HIV-1RF [3]; in words): completely inactive after only a six-fold increase in the MOI
EC50 (HIV-1RF [1]; Human immunodeficiency virus 1, CEM-SS, Table 5, read-out: EC50 Duplicates): 0.0054 µM
EC50 (HIV-1RF [1]; [5]): 0.0056 µM
EC50 (HIV-1RF [1]; Table 5, read-out: EC50 Duplicates): 0.0057 µM
